Assay results as given in publication PMC4490465 (2015).

Legend:
[1] = system: 3 bp mismatch (DNA, hairpin) CAGTCATGAGCATGGATGCGGAAAAACCGCATCCATGCTCATGACTG; assay: SPR, steady state, 1:1 fit; settings: HBS-EP + 0.1% DMSO, pH 7.4, 25 °C
[2] = system: Cognate DNA sequence (DNA, hairpin) CGCATATGGTATGTGCCGCGGAAAAACCGCGGCACATACCATATGCG; assay: SPR, steady state, 1:1 fit; settings: HBS-EP + 0.1% DMSO, pH 7.4, 25 °C

Row | Kd [1] | Kd [2] | Kd ([2]; apparent) | SMILES
1 | 314 ± 160 nM | 1.6 ± 0.1 nM | – | CC(=O)Nc1cn(C)c(C(=O)Nc2cn(C)c(C(=O)Nc3cc(C(=O)Nc4cc(C(=O)NCCCC(=O)Nc5cc(C(=O)Nc6cc(C(=O)Nc7cc(C(=O)Nc8cc(C(=O)NCCC(=O)NCCCN(C)C)n(C)c8)n(C)c7)n(C)c6)n(C)c5)n(C)c4)n(C)c3)n2)n1
2 | – | – | 9.3 ± 1.6 nM | CN(C)CCCNC(=O)CCNC(=O)c1cc(NC(=O)c2cc(NC(=O)c3cc(NC(=O)c4cc(NC(=O)CCCNC(=O)c5cc(NC(=O)c6cc(NC(=O)c7nc(NC(=O)c8nc(NC(=O)CCOCCOCCOCCNC(=O)[C@@H](N)CSSC(C)(C)C)cn8C)cn7C)cn6C)cn5C)cn4C)cn3C)cn2C)cn1C
